Data reported in patent US12428422B2, “Purine derivatives as SIK-3 inhibitors” (RHIZEN PHARMACEUTICALS AG, priority 2020, dated 2025).

Experiments:
SIK3 (human) = SIK3 (human) (Homo sapiens, UniProt Q9Y2K2); assay: Enzymatic radiometric assay against human salt-inducible kinase-3 (SIK3); type: biochemical; conditions: at a concentration of 1 μM; read-out: inhibition of SIK-3 activity
Experimental: Assay 1: Determination of IC50 of Compound M1 Against Human Salt-Inducible Kinase-3 (SIK3) Using an Enzymatic Radiometric Assay
• SIK3 (human) was incubated with 8 mM MOPS pH 7.0, 0.2 mM EDTA, 100 uM of the peptide […] (Substrate), 10 mM Mg Acetate and [gamma-33P-ATP] (specific activity and concentration as required) in the presence of Compound M1. • The reaction was initiated by the addition of the Mg/ATP mix. • After incubation for 40 minutes at room temperature, the reaction was stopped by the addition of phosphoric acid to a concentration of 0.5%. • 10 μL of the reaction mixture was then spotted onto a P30 filtermat and washed four times for 4 minutes in 0.425% phosphoric acid and once in methanol prior to drying and scintillation counting. • The IC50 value was calculated using GraphPad Prism.

6 isoform of PI3K = 6 isoform of PI3K (Homo sapiens, UniProt O00329); conditions: background statement; cited from earlier work
6 isoform of PI3K, sequence (O00329 whole entry, canonical isoform): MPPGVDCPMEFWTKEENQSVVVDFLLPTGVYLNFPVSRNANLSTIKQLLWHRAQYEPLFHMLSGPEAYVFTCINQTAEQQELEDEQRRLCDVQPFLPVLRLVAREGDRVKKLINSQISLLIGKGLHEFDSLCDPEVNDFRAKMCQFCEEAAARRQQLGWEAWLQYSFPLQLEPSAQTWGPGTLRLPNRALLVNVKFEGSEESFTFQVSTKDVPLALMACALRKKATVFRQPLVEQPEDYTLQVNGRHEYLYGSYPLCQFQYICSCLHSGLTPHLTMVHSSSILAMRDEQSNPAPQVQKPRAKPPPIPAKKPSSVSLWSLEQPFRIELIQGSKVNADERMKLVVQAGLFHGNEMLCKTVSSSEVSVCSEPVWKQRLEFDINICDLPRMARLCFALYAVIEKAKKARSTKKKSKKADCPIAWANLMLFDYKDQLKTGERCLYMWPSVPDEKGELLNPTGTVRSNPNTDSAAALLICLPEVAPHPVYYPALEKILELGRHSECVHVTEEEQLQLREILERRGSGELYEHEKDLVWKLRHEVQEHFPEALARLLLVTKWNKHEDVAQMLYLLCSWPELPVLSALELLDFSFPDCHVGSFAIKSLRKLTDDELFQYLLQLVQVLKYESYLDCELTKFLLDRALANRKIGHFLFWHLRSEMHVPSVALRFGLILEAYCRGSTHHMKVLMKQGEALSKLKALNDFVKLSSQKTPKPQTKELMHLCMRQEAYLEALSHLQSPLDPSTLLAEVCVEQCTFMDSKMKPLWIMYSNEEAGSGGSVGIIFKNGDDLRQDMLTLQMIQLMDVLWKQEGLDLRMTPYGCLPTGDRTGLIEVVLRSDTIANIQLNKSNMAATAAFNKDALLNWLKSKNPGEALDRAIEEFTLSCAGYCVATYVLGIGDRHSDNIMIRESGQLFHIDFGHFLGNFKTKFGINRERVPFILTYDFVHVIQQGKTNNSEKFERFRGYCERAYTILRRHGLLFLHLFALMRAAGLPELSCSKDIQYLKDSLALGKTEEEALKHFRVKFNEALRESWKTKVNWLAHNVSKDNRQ
6 isoform of PI3K, sequence (P27986 whole entry partner, canonical isoform): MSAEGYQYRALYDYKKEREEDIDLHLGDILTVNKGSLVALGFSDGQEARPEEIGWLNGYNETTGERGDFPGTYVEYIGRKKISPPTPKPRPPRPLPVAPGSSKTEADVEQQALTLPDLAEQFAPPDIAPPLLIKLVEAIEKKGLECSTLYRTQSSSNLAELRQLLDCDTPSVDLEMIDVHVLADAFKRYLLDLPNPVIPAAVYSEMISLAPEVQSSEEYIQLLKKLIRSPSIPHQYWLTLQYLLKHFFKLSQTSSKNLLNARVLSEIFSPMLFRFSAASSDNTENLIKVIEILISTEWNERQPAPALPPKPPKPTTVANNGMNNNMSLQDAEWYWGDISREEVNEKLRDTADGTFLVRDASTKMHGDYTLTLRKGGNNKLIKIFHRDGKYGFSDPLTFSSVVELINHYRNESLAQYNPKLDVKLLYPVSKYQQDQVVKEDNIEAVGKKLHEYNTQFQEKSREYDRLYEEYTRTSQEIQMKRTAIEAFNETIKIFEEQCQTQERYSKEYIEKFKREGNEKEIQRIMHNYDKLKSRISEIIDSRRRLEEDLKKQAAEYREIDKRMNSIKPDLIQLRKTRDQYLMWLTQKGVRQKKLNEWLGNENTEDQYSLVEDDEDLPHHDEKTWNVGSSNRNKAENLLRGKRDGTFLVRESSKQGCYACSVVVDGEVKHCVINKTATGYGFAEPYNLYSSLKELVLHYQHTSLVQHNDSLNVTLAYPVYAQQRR

y isoform of PI3K = y isoform of PI3K (Homo sapiens, UniProt P48736); conditions: background statement; cited from earlier work
y isoform of PI3K, sequence (P48736 whole entry, canonical isoform): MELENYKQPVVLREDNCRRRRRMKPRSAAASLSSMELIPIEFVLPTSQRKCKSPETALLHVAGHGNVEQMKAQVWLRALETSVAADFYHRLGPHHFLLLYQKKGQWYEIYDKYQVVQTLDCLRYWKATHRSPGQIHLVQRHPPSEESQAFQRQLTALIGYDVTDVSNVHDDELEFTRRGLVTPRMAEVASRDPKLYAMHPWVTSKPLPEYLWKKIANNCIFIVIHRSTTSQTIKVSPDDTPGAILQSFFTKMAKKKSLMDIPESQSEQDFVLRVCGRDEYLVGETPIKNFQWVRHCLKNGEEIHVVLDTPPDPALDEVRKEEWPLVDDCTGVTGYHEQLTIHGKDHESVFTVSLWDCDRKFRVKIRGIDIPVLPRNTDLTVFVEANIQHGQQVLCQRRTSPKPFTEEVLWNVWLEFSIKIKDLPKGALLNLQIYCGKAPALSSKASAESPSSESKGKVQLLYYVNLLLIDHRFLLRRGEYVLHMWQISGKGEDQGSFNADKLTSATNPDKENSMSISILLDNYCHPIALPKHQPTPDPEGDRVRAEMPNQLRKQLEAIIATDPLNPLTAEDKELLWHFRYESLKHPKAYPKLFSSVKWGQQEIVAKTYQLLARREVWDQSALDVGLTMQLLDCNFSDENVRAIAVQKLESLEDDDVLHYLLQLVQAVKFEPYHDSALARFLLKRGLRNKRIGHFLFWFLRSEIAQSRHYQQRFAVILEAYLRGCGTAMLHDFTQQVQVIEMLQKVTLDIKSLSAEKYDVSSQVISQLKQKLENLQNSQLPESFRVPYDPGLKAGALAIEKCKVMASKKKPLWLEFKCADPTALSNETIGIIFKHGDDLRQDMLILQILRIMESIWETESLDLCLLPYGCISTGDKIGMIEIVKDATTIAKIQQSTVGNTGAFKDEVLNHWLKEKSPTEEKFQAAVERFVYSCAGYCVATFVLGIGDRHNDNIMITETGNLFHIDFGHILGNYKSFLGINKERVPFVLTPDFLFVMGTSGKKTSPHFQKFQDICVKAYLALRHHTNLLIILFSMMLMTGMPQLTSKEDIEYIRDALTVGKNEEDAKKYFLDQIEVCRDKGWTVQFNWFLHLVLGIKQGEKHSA

[1] = Pharmacokinetic evaluation of patient plasma samples from a human clinical trial; type: in vivo; conditions: metabolite is Compound M1

SIK3 (human), sequence (Q9Y2K2 whole entry): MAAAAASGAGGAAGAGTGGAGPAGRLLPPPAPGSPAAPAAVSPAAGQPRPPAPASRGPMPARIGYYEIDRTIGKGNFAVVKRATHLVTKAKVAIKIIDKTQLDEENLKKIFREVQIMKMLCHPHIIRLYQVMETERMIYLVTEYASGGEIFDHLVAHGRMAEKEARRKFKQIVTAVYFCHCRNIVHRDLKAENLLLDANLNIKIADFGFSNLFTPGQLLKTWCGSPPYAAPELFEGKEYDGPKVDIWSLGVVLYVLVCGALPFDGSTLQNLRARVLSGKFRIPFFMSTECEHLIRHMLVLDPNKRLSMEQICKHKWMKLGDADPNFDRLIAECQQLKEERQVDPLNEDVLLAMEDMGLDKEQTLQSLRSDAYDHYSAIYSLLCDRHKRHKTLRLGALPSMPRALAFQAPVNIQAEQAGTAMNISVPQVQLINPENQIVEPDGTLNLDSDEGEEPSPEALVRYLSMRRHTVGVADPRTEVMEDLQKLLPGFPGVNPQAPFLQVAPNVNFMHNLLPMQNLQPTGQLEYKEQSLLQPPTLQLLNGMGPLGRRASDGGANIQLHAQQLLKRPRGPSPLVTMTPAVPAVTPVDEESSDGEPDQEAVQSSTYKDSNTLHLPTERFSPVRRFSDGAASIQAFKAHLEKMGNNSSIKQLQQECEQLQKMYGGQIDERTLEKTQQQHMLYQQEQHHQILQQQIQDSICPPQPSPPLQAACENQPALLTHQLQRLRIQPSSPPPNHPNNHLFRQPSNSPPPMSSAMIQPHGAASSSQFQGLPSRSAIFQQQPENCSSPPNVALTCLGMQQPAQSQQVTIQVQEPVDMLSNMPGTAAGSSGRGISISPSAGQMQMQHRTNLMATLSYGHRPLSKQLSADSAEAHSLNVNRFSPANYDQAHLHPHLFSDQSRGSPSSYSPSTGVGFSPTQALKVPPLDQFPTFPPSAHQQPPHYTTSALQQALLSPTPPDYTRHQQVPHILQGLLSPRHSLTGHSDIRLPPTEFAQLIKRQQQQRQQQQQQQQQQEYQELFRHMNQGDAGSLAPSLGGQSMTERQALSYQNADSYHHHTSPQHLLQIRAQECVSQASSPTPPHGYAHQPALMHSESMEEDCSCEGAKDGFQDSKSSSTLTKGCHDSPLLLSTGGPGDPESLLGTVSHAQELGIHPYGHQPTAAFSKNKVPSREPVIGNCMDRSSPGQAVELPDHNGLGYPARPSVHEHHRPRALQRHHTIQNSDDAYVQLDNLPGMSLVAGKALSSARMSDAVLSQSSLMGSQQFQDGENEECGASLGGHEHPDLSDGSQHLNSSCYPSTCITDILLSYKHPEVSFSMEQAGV

Structure (SMILES)	inhibition at 1 µM (SIK3 (human))	potency against the 6 isoform of PI3K (6 isoform of PI3K)	potency against the 7 isoform of PI3K (y isoform of PI3K)	metabolism in patients (metabolite formation) [1]
CC[C@@H](Nc1ncnc2[nH]c(O)nc12)c1oc2ccccc2c(=O)c1-c1cccc(F)c1 [Compound M2, (R)-3-(3-fluorophenyl)-2-(1-((8-hydroxy-9H-purin-6-yl)amino)propyl)-4H-chromen-4-one]	100%			
CC[C@H](Nc1ncnc2nc[nH]c12)c1oc2ccccc2c(=O)c1-c1cccc(F)c1 [Tenalisib, 3-(3-fluorophenyl)-2-[(1S)-1-(7H-purin-6-ylamino)propyl]-chromen-4-one]		nanomolar potency	nanomolar potency	underwent metabolism to produce in some subjects
